# Where “and” joins values, the source holds several entries; their conditions need not be identical. Identical values can stand only once. Like-named read-outs stand apart in the source and are kept apart here.
# Legend:
# Jurkat, Clone E6-1 = assay: In vitro human tumor cell line cytotoxicity assay; assay type: cell-based; settings: read-out: RelIC50
# Jurkat = assay: In vitro human tumor cell line cytotoxicity assay; assay type: cell-based; settings: read-out: RelIC50
# HL-60 Clone = assay: In vitro human tumor cell line cytotoxicity assay; assay type: cell-based; settings: read-out: RelIC50
# H460 cells = assay: In vitro proliferation assay, H460; assay type: cell-based; settings: Homo sapiens, NCI-H460; 2 hrs exposure, wash, additional 70hrs, AlamarBlue; read-out: IC 50 in proliferation assay in H460 cells
# Protocol: In vitro proliferation data on the H460 […] human tumor cell line is reported above in the compound table. IC50 values are reported in micromolar and result from exposure of compound at various concentrations for 2 hrs followed by a wash step and addition of fresh media followed by growth and cell viability staining and comparison to a media only treated control.
# Specifically, exponentially growing cells were seeded at a density of 4 x 10^3 cells per well in a 96 well plate and incubated at 37°C in 5% CO2, 95% air and 100% relative humidity for 24 hours prior to addition of test compounds. Compounds were solubilized in 100% DMSO at 200 times the desired final test concentration. At the time of drug addition, compounds were further diluted to 4 times the desired final concentration with complete medium. Aliquots of 50 µl of compound at specified concentrations were added to microtiter wells already containing 150 µl of medium, resulting in the final drug concentration reported. After drug addition, the plates were incubated for an additional 2 hours at 37°C, 5% CO2, 95% air, and 100% relative humidity, then the drug was washed off and fresh medium was added and the plates were incubated for addition 70hrs at 37 °C, 5% CO2, 95% air and 100% relative humidity. At the end of this incubation, the viable cells were quantified using the AlamarBlue assay. The drug concentration resulting in growth inhibition of 50% (IC50) was calculated using Prism software (Irvine, CA), and the results were listed in the table.
# GR-ST = assay: In vitro human tumor cell line cytotoxicity assay; assay type: cell-based; settings: read-out: RelIC50
# K-562 = assay: In vitro human tumor cell line cytotoxicity assay; assay type: cell-based; settings: K562, read-out: RelIC50
# [1] = test system: HepG2-GFP human hepatocellular carcinoma; assay: Orthotopic mouse model of human liver cancer, tumor burden; assay type: in vivo, athymic nude mice; settings: for tumor inhibition rate IR(%): from final average tumor weights
# Protocol: Female athymic nude mice (6 weeks of age) were used in this study. The animals were purchased from Beijing HFK Bioscience, Co., Ltd and maintained in a High Efficiency Particulate Air Filter (HEPA) filtered environment with cages, food, and bedding sterilized by irradiation or autoclaving. A total of 32 nude mice were used for the study. HepG2-GFP human hepatocellular carcinoma cells (AntiCancer, Inc., San Diego, CA) were incubated with RPMI-1640 (Gibco-BRL, Life Technologies, Inc.), which contained 10% FBS. Cells were grown in a CO2 Water Jacketed Incubator (Forma Scientific) maintaining 37°C and a 5% CO2/95% air atmosphere. Cell viability was determined by trypan blue exclusion analysis. Five female athymic nude mice were injected subcutaneously with a single dose of 5 x 10^6 HepG2-GFP cells. Tumors were harvested when their size reached 1cm^3 and the tumor tissues were then cut into small fragments of 1mm^3. Forty female nude mice were implanted orthotopically with a single piece of tumor fragment, which was derived from a subcutaneous tumor model of HepG2-GFP human hepatocellular carcinoma. The tumor tissue was orthotopically implanted in the right lobe of the liver in each mouse by SOI (Surgical Orthotopic Implantation). Briefly, an upper abdominal incision of 1cm was made under anesthesia. Right lobe of the liver was exposed and a part of the liver surface was injured mechanically by scissors. Then a piece of tumor fragment was fixed within the liver tissue, the liver was returned to the peritoneal cavity and the abdominal wall finally closed. Mice were kept in laminar-flow cabinets under specific pathogen-free-conditions.
# Treatment was started three days after tumor implantation when the implanted tumors reached an average size of around 1 mm^2. The 32 tumor-bearing mice were randomly divided into four experimental groups of 8 mice each. Each cage was clearly marked for its group with four mice per cage. […] Table. Groups and treatment protocol
# During the period of the study, all of the experimental mice were checked daily for mortality or signs of morbidity. […] The body weights of the mice were measured twice weekly during the study period. Images of tumor growth and progression were acquired twice a week during the period of the study with the FluorVivo imaging system, Model 300/Mag (INDEC, CA, USA). […] Livers were exposed for imaging, after which the tumors were removed and weighted with an electronic balance (Sartorius BS 124 S, Germany). Tumor tissues were kept in formalin for further analysis. Comparisons of body weights and tumor burdens in different groups were analyzed using the Student's t-test with an α = 0.05 (two-sided). After intravenously injection of the test agents, the mice had no lying, no autonomous activity reduction. The experimental animals were generally in good condition. Table. Comparison of mean mice body weight at the end of the study
# The progressions of orthotopic HepG2-GFP hepatocellular carcinoma in different groups were monitored by real time imaging. Images were acquired twice a week. Typical tumor images at the end of the study in each group and tumor growth curves derived from the signals of tumor fluorescence, which were analyzed using the Power Station software (INDEC Biosystems, CA, USA), are shown in figure 6 and figure 7, respectively Table. Average tumor size in each group (mm2)
# OE 21 = assay: In vitro human tumor cell line cytotoxicity assay; assay type: cell-based; settings: OE21, read-out: RelIC50
# C3A = assay: In vitro human tumor cell line cytotoxicity assay; assay type: cell-based; settings: for IC50: Homo sapiens
# PLCPRF5 = assay: In vitro human tumor cell line cytotoxicity assay; assay type: cell-based; settings: for IC50: Homo sapiens
# TE-14 = assay: In vitro human tumor cell line cytotoxicity assay; assay type: cell-based; settings: read-out: RelIC50
# P30/OHK = assay: In vitro human tumor cell line cytotoxicity assay; assay type: cell-based; settings: read-out: RelIC50
# KYSE 70 = assay: In vitro human tumor cell line cytotoxicity assay; assay type: cell-based; settings: read-out: RelIC50
# HEL = assay: In vitro human tumor cell line cytotoxicity assay; assay type: cell-based; settings: read-out: RelIC50
# NOMO-1 = assay: In vitro human tumor cell line cytotoxicity assay; assay type: cell-based; settings: read-out: RelIC50
# TE-8 = assay: In vitro human tumor cell line cytotoxicity assay; assay type: cell-based; settings: read-out: RelIC50
# Vcap = assay: In vitro human tumor cell line cytotoxicity assay; assay type: cell-based; settings: for IC50: Homo sapiens, VCaP
smiles,measurement,setting,value
"C[C@H](OP(=O)(N1CC1)N1CC1)c1ccc([N+](=O)[O-])c(Oc2cccc(C(=O)N(C)C)c2)c1 (single isomer, unassigned) [TH3424]",IC50,"Jurkat, Clone E6-1",24 nM
same,IC50,Jurkat,40 nM
same,IC50,HL-60 Clone,52.6 nM
same,IC50,H460 cells,4 nM
same,IC50,GR-ST,99 nM
same,IC50,K-562,> 1000 nM
same,Tumor area (mm^2) (mean ± sd),"[1]; 2.5mg/kg, QWx6, I.P., Day 35",1.2 ± 1.1 mm^2 and 1.2 ± 1.1(Day 35) mm^2
same,Tumor area (mm^2) (mean ± sd),"[1]; 2.5mg/kg, QWx6, I.P., Day 49",2.0 ± 2.2 mm^2 and 2.0 ± 2.2(Day 49) mm^2
same,Tumor weight (g) (mean ± sd),"[1]; 2.5mg/kg, QWx6, I.P., Day 49",0.0081±0.0088 g and 0.0081±0.0088 (Day 49) g
same,average fluorescence imaging readout area as % of that in the negative control group,"[1]; 2.5 mg/kg, day 35",around 8%
same,average fluorescence imaging readout area as % of that in the negative control group,"[1]; 2.5 mg/kg, day 49 after treatment",around 8%
same,tumor inhibition rate IR(%),[1]; 2.5 mg/kg,94.8%
same,Tumor area (mm^2) (mean ± sd),"[1]; 5mg/kg, QWx3, I.P.",0 mm^2 and 0.0 ± 0.0 mm^2
same,Tumor weight (g) (mean ± sd),"[1]; 5mg/kg, QWx3, I.P.",0 g and 0.0000 ± 0.0000 g
same,tumor inhibition rate IR(%),[1]; 5mg/kg,100%
same,average tumor weight as % of that in the negative control group,"[1]; high dose group, 5mg/kg",0%
same,average tumor weight as % of that in the negative control group,"[1]; low dose group, 2.5mg/kg",5.2%
same,IC50,OE 21,5.2 nM
same,Max Inhibition%,C3A,98.7%
same,Min Inhibition%,C3A,-2.1%
same,IC50,C3A; read-out: AbsIC50,9.3 nM
same,IC50,C3A; read-out: RelIC50,4.1 nM
same,Max Inhibition%,PLCPRF5,85.2%
same,Min Inhibition%,PLCPRF5,1.4%
same,IC50,"PLCPRF5; PLC-PRF-5, read-out: AbsIC50",111 nM
same,IC50,"PLCPRF5; PLC-PRF-5, read-out: RelIC50",128 nM
same,IC50,TE-14,4.7 nM
same,IC50,P30/OHK,> 1000 nM
same,IC50,KYSE 70,33 nM
same,IC50,HEL,224 nM
same,IC50,NOMO-1,11 nM
same,IC50,TE-8,19 nM
same,IC50,Vcap; read-out: AbsIC50,14.8 nM
same,IC50,Vcap; read-out: RelIC50,13.2 nM
same,Max Inhibition%,Vcap; Vcap,101.4%
same,Min Inhibition%,Vcap; Vcap,-13.2%
